Measured values from PubChem BioAssay AID330 (DTP/NCI, 2004).
“And” between values parts separate entries of the source, which are not always exact repeats. Equal entries are not always repeated. Inconclusive results and toxic doses are left out. Rule for the calls: active = survival T/C of 150% or more; inactive = T/C below 125% in these data.

System: P388 leukemia ip, CD2F1 mice, survival T/C
Assay: NCI In Vivo Anticancer Drug Screen. Data for tumor model P388 Leukemia (intraperitoneal) in CD2F1 (CDF1) mice
Details: endpoint: median survival time, higher = longer survival
Summary of the method: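 Mice carrying the transplanted tumor received test compound or vehicle. Survival was recorded in each group, and the value is the treated-group measurement divided by that of the vehicle-treated control group.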

[1] = dose: 6.25 mg/kg/injection, schedule: Q01DX005 (ip), vehicle: water
[2] = dose: 25.0 mg/kg/injection, schedule: Q01DX001 (ip), vehicle: saline with Tween-80
[3] = dose: 50.0 mg/kg/injection, schedule: Q01DX001 (ip), vehicle: saline with Tween-80
[4] = dose: 25.0 mg/kg/injection, schedule: Q01DX009 (ip), vehicle: saline with Tween-80
[5] = dose: 50.0 mg/kg/injection, schedule: Q01DX009 (ip), vehicle: Klucel (hydroxypropylcellulose) (HPC)
[6] = dose: 100.0 mg/kg/injection, schedule: Q01DX009 (ip), vehicle: Klucel (hydroxypropylcellulose) (HPC)
[7] = dose: 100.0 mg/kg/injection, schedule: Q01DX001 (ip), vehicle: saline with Tween-80
[8] = dose: 200.0 mg/kg/injection, schedule: Q01DX009 (ip), vehicle: Klucel (hydroxypropylcellulose) (HPC)

Measured: T/C

CCOC(=C[P+](c1ccccc1)(c1ccccc1)c1ccccc1)OCC
inactive: dose: 0.39 mg/kg/injection, schedule: Q01DX005 (ip), vehicle: water 98 % of control and 103 % of control | dose: 0.78 mg/kg/injection, schedule: Q01DX005 (ip), vehicle: water 107 % of control and 96 % of control | dose: 1.56 mg/kg/injection, schedule: Q01DX005 (ip), vehicle: water 102 % of control and 110 % of control and 121 % of control | dose: 3.12 mg/kg/injection, schedule: Q01DX005 (ip), vehicle: water 113 % of control and 118 % of control and 124 % of control | [1] 109 % of control

CCOC(=O)c1ccc(NC(=O)Oc2ccc(NC(C)=O)cc2)cc1
inactive: dose: 60.0 mg/kg/injection, schedule: Q01DX005 (ip), vehicle: Klucel (hydroxypropylcellulose) (HPC) 98 % of control | dose: 120.0 mg/kg/injection, schedule: Q01DX005 (ip), vehicle: Klucel (hydroxypropylcellulose) (HPC) 92 % of control | dose: 240.0 mg/kg/injection, schedule: Q01DX005 (ip), vehicle: Klucel (hydroxypropylcellulose) (HPC) 92 % of control

COC(=O)Cn1/c(=N\N=C\c2ccc([N+](=O)[O-])cc2)sc2ccccc21
inactive: dose: 12.5 mg/kg/injection, schedule: Q01DX001 (ip), vehicle: saline with Tween-80 86 % of control | [2] 86 % of control | [3] 92 % of control | dose: 400.0 mg/kg/injection, schedule: Q01DX001 (ip), vehicle: saline with Tween-80 90 % of control

CCOC(=O)c1ccc(NCc2cccc([N+](=O)[O-])c2)cc1
inactive: dose: 100.0 mg/kg/injection, schedule: Q04DX003 (ip), vehicle: saline 109 % of control | dose: 200.0 mg/kg/injection, schedule: Q04DX003 (ip), vehicle: saline 101 % of control | dose: 400.0 mg/kg/injection, schedule: Q04DX003 (ip), vehicle: saline 101 % of control

Cc1cccc2c1CC(C(C)C)C2 (stereo not drawn)
inactive: [4] 111 % of control and 89 % of control | dose: 50.0 mg/kg/injection, schedule: Q01DX009 (ip), vehicle: saline with Tween-80 108 % of control and 96 % of control | dose: 100.0 mg/kg/injection, schedule: Q01DX009 (ip), vehicle: saline with Tween-80 104 % of control and 107 % of control | dose: 200.0 mg/kg/injection, schedule: Q01DX009 (ip), vehicle: saline with Tween-80 90 % of control

COc1cc2c(c(O)c1OC)-c1ccc(OC)c(=O)cc1[C@@H](NC(C)=O)CC2
inactive: dose: 2.5 mg/kg/injection, schedule: Q01DX009 (ip), vehicle: Klucel (hydroxypropylcellulose) (HPC) 102 % of control | dose: 5.0 mg/kg/injection, schedule: Q01DX009 (ip), vehicle: Klucel (hydroxypropylcellulose) (HPC) 93 % of control | dose: 10.0 mg/kg/injection, schedule: Q01DX009 (ip), vehicle: Klucel (hydroxypropylcellulose) (HPC) 96 % of control | dose: 20.0 mg/kg/injection, schedule: Q01DX009 (ip), vehicle: Klucel (hydroxypropylcellulose) (HPC) 93 % of control | dose: 28.0 mg/kg/injection, schedule: Q01DX009 (ip), vehicle: Klucel (hydroxypropylcellulose) (HPC) 86 % of control | dose: 40.0 mg/kg/injection, schedule: Q01DX009 (ip), vehicle: Klucel (hydroxypropylcellulose) (HPC) 102 % of control | dose: 56.0 mg/kg/injection, schedule: Q01DX009 (ip), vehicle: Klucel (hydroxypropylcellulose) (HPC) 96 % of control

CCOP(=O)(N=Nc1cccnc1)OCC
inactive: dose: 1.56 mg/kg/injection, schedule: Q01DX009 (ip), vehicle: water 107 % of control | dose: 3.12 mg/kg/injection, schedule: Q01DX009 (ip), vehicle: water 101 % of control | [1] 100 % of control | dose: 6.25 mg/kg/injection, schedule: Q01DX009 (ip), vehicle: water 101 % of control | dose: 12.5 mg/kg/injection, schedule: Q01DX005 (ip), vehicle: water 96 % of control | dose: 12.5 mg/kg/injection, schedule: Q01DX009 (ip), vehicle: water 112 % of control | dose: 25.0 mg/kg/injection, schedule: Q01DX005 (ip), vehicle: water 102 % of control | dose: 25.0 mg/kg/injection, schedule: Q01DX009 (ip), vehicle: water 117 % of control | dose: 50.0 mg/kg/injection, schedule: Q01DX005 (ip), vehicle: water 103 % of control | dose: 100.0 mg/kg/injection, schedule: Q01DX005 (ip), vehicle: water 103 % of control

CN1C(=O)N(C)C2(C#N)CC2([N+](=O)[O-])C1=O (stereo not drawn)
inactive: dose: 12.5 mg/kg/injection, schedule: Q01DX009 (ip), vehicle: saline with Tween-80 89 % of control | [4] 90 % of control

Nc1ccc(C(=O)c2cccs2)cn1
inactive: dose: 50.0 mg/kg/injection, schedule: Q01DX005 (ip), vehicle: distilled water + alcohol 98 % of control | dose: 100.0 mg/kg/injection, schedule: Q01DX005 (ip), vehicle: distilled water + alcohol 104 % of control

CC(=O)NC1CC(=O)N(c2ccc(Cl)cc2)C1=O (stereo not drawn)
inactive: [5] 96 % of control | [6] 96 % of control | dose: 100.0 mg/kg/injection, schedule: Q04DX003 (ip), vehicle: Klucel (hydroxypropylcellulose) (HPC) 102 % of control | dose: 200.0 mg/kg/injection, schedule: Q04DX003 (ip), vehicle: Klucel (hydroxypropylcellulose) (HPC) 101 % of control

CC1([P+](C)(C)C)C2C=CC1CC2 (stereo not drawn)
inactive: dose: 25.0 mg/kg/injection, schedule: Q01DX001 (ip), vehicle: saline 100 % of control | dose: 50.0 mg/kg/injection, schedule: Q01DX001 (ip), vehicle: saline 103 % of control | [7] 105 % of control | dose: 100.0 mg/kg/injection, schedule: Q01DX001 (ip), vehicle: saline 100 % of control

Nc1n[nH][nH]c1=O
inactive: dose: 60.0 mg/kg/injection, schedule: Q01DX005 (ip), vehicle: saline 100 % of control | dose: 120.0 mg/kg/injection, schedule: Q01DX005 (ip), vehicle: saline 116 % of control | dose: 240.0 mg/kg/injection, schedule: Q01DX005 (ip), vehicle: saline 100 % of control

N=c1c2ncn(C3OC(COP(=O)(O)O)C(O)C3O)c2ncn1O (stereo not drawn)
inactive: dose: 50.0 mg/kg/injection, schedule: Q01DX009 (ip), vehicle: saline 97 % of control | dose: 100.0 mg/kg/injection, schedule: Q01DX009 (ip), vehicle: saline 97 % of control | dose: 200.0 mg/kg/injection, schedule: Q01DX009 (ip), vehicle: saline 95 % of control | dose: 400.0 mg/kg/injection, schedule: Q01DX009 (ip), vehicle: saline 97 % of control

SCC(CS)=C(CS)CS
inactive: dose: 60.0 mg/kg/injection, schedule: Q01DX005 (ip), vehicle: saline with Tween-80 112 % of control | dose: 120.0 mg/kg/injection, schedule: Q01DX005 (ip), vehicle: saline with Tween-80 113 % of control | dose: 240.0 mg/kg/injection, schedule: Q01DX005 (ip), vehicle: saline with Tween-80 106 % of control

CCCCc1cc(-c2ccc(C)cc2)c(CCCC)c2c1-c1cccc3cccc-2c13
inactive: dose: 100.0 mg/kg/injection, schedule: Q04DX003 (ip), vehicle: saline with Tween-80 98 % of control | dose: 200.0 mg/kg/injection, schedule: Q04DX003 (ip), vehicle: saline with Tween-80 91 % of control | dose: 400.0 mg/kg/injection, schedule: Q04DX003 (ip), vehicle: saline with Tween-80 92 % of control

CSc1ccccc1P(c1ccccc1)c1ccccc1
inactive: [5] 109 % of control | [6] 115 % of control | [8] 105 % of control

CC(=O)NN1C(=O)Cc2ccccc2C1C(N)=O (stereo not drawn)
inactive: [5] 103 % of control | [6] 111 % of control | [8] 103 % of control

NS(=O)(=O)c1ccc(N2C(=S)N(c3ccccc3)C(=Nc3ccccc3)C2=Nc2ccccc2)cc1
inactive: dose: 50.0 mg/kg/injection, schedule: Q01DX005 (ip), vehicle: Klucel + Tween-80 96 % of control | dose: 100.0 mg/kg/injection, schedule: Q01DX005 (ip), vehicle: Klucel + Tween-80 105 % of control | dose: 200.0 mg/kg/injection, schedule: Q01DX005 (ip), vehicle: Klucel + Tween-80 89 % of control

CCN1c2ccccc2S(=O)(=O)n2c(COc3ccccc3)nnc21
inactive: [2] 95 % of control | [3] 95 % of control | [7] 87 % of control
